Test systems include T-47D breast; HS 578T breast; PC-3 prostate; MCF7 breast; HCT-116 colon; HOP-92 NSCLC; ACHN renal; MOLT-4 leukemia; COLO 205 colon; OVCAR-5 ovarian.
Experiment in all cases: NCI anticancer screen, dose series, 48 h

The structures appear in SMILES notation. Values joined by “and” are separate entries in the source; they are usually repeats but may differ in a detail not shown here. Equal entries are not always repeated.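 Results reflect a 48-hour exposure of cells in 96-well plates to compound at five concentrations. GI50 = concentration required for 50% inhibition of growth. TGI: total growth inhibition.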

Turning to `Cc1cc(O)cc(C)c1/C=C/c1cncc(C(=O)OC(C)(C)C)c1`, the GI50 with T-47D breast was 10.7 µM; with HS 578T breast it was 7.64 µM; with PC-3 prostate, 10.4 µM; in the experiment with MCF7 breast, 11.8 µM; in the experiment with HCT-116 colon it was 14.1 µM; in the experiment with HOP-92 NSCLC, 4.01 µM. Besides, the GI50 with ACHN renal was 12.7 µM; with MOLT-4 leukemia it was 15 µM; in the experiment with COLO 205 colon, over 25 µM; in the experiment with OVCAR-5 ovarian it was over 25 µM. Moreover, the TGI in the experiment with T-47D breast is over 25 µM; in the experiment with HS 578T breast, 24.7 µM; in the experiment on PC-3 prostate, over 25 µM; in the experiment with MCF7 breast, over 25 µM; in the experiment on HCT-116 colon, over 25 µM; with HOP-92 NSCLC it was 18.8 µM. Further, the TGI in the experiment with ACHN renal, in the experiment with MOLT-4 leukemia, with COLO 205 colon and in the experiment with OVCAR-5 ovarian was over 25 µM throughout.

As to `O=Nc1c(O)c2ccccc2c2ccccc12`, the GI50 in the experiment with T-47D breast is 1.32 µM; in the experiment with HS 578T breast, 2 µM; in the experiment with PC-3 prostate, 0.633 µM; in the experiment on MCF7 breast it was 1.46 µM; in the experiment on HCT-116 colon, 0.371 µM; with HOP-92 NSCLC it was 2.32 µM. Moreover, the GI50 with ACHN renal is 1.02 µM; in the experiment with MOLT-4 leukemia it was 2.13 µM; with COLO 205 colon, 1.92 µM; in the experiment with OVCAR-5 ovarian, 1.94 µM. Also, the TGI in the experiment with T-47D breast was determined as 3.57 µM; in the experiment on HS 578T breast it was 5.65 µM; in the experiment on PC-3 prostate it was 2.73 µM; in the experiment with MCF7 breast, 4.11 µM; in the experiment with HCT-116 colon, 1.33 µM; in the experiment on HOP-92 NSCLC it was 4.57 µM. The TGI with ACHN renal is 7.1 µM; in the experiment on MOLT-4 leukemia it was over 100 µM; in the experiment on COLO 205 colon it was 3.46 µM; in the experiment on OVCAR-5 ovarian it was 4.53 µM.

For the compound `NC(CO)C(=O)NCC(=O)O` (stereo not drawn), the TGI with T-47D breast, with HS 578T breast, in the experiment on PC-3 prostate, in the experiment on MCF7 breast, with HCT-116 colon and in the experiment with HOP-92 NSCLC was over 100 µM throughout. Also, the TGI in the experiment with ACHN renal, in the experiment on MOLT-4 leukemia, with COLO 205 colon and in the experiment with OVCAR-5 ovarian was over 100 µM in each case.

As to `CCN1C(=O)N(CC)C2C1NN=c1s/c(=C\c3cccc([N+](=O)[O-])c3)c(=O)n12` (stereo not drawn), the TGI in the experiment on T-47D breast, with HS 578T breast, in the experiment on PC-3 prostate, in the experiment on MCF7 breast, in the experiment on HCT-116 colon and with HOP-92 NSCLC was over 100 µM throughout. Also, the TGI with ACHN renal is over 100 µM; with MOLT-4 leukemia it was over 100 µM; in the experiment on COLO 205 colon it was 0.538 µM; in the experiment with OVCAR-5 ovarian, over 100 µM. In addition, the GI50 in the experiment with HS 578T breast was 0.0502 µM; in the experiment with PC-3 prostate, 0.0853 µM; in the experiment with MCF7 breast it was 0.0366 µM; with HCT-116 colon it was 0.0422 µM; in the experiment on HOP-92 NSCLC it was 4.05 µM; with ACHN renal, 0.0662 µM. Besides, the GI50 was 0.24 µM with MOLT-4 leukemia, 0.0663 µM in the experiment with COLO 205 colon and 0.324 µM with OVCAR-5 ovarian.

Consider `CCN(CC)CCCNc1[nH]ncc2c(C)c3nc4ccccc4c3cc12`, for which the GI50 in the experiment with T-47D breast is 1.01 µM; in the experiment with HS 578T breast, 0.449 µM; with PC-3 prostate it was 0.498 µM; with MCF7 breast it was 0.219 µM; in the experiment with HCT-116 colon, 0.412 µM and 0.421 µM; in the experiment with HOP-92 NSCLC, 0.613 µM. For the same compound, the GI50 in the experiment with MOLT-4 leukemia was 0.0288 µM; with COLO 205 colon it was 0.49 µM; in the experiment with OVCAR-5 ovarian it was 0.774 µM. Also, the TGI is 17 µM and 20.2 µM in the experiment with T-47D breast; 2.13 µM and 6.38 µM with HS 578T breast; 2.11 µM and 4.55 µM in the experiment on PC-3 prostate; 0.756 µM and 5.9 µM in the experiment on MCF7 breast; 2.32 µM and 3.31 µM in the experiment on HCT-116 colon; 3.63 µM and 5.8 µM with HOP-92 NSCLC. Also, the TGI is 11.6 µM and 9.15 µM in the experiment on ACHN renal; 0.183 µM and 0.0447 µM in the experiment with MOLT-4 leukemia; 1.75 µM and 3.23 µM in the experiment on COLO 205 colon; 6.81 µM and 16.6 µM in the experiment on OVCAR-5 ovarian.

For the compound `COc1cc(NC(C)CCCN)c2ncccc2c1Sc1ccc(Cl)cc1` (stereo not drawn), the GI50 in the experiment with T-47D breast is 1.77 µM; in the experiment with HS 578T breast it was 1.67 µM; in the experiment on PC-3 prostate it was 1.65 µM; in the experiment on MCF7 breast it was 1.76 µM; in the experiment on HCT-116 colon it was 1.7 µM; with HOP-92 NSCLC it was 1.37 µM. Further, the GI50 was 1.79 µM in the experiment with ACHN renal, 1.84 µM in the experiment with MOLT-4 leukemia, 1.67 µM in the experiment on COLO 205 colon and 1.73 µM in the experiment on OVCAR-5 ovarian. Further, the TGI in the experiment with T-47D breast stood at 3.34 µM; in the experiment on HS 578T breast, 3.85 µM; with PC-3 prostate, 3.09 µM; in the experiment on MCF7 breast it was 3.19 µM; in the experiment with HCT-116 colon, 3.27 µM; in the experiment on HOP-92 NSCLC, 3.48 µM. Further, the TGI in the experiment on ACHN renal was 3.22 µM; in the experiment on MOLT-4 leukemia, 4.16 µM; in the experiment with COLO 205 colon it was 3.03 µM; with OVCAR-5 ovarian it was 3.28 µM.

Consider `CC1(C)CC(=O)c2c(ccc(C(=O)C[C@@H](N)CO)c2N)O1`, for which the GI50 in the experiment with T-47D breast is 4.56 µM; with HS 578T breast it was 20.6 µM; in the experiment on PC-3 prostate it was 2.1 µM; with MCF7 breast, 0.399 µM; in the experiment on HCT-116 colon it was 0.347 µM; in the experiment on HOP-92 NSCLC it was 6.28 µM. The GI50 is 1.25 µM in the experiment with ACHN renal, 0.349 µM in the experiment with MOLT-4 leukemia, 1.05 µM in the experiment with COLO 205 colon and 22.8 µM in the experiment with OVCAR-5 ovarian. Further, the TGI was over 67.6 µM in the experiment with T-47D breast; over 100 µM in the experiment with HS 578T breast; over 100 µM with PC-3 prostate; over 52.5 µM in the experiment on MCF7 breast; over 100 µM in the experiment with HCT-116 colon; over 69.3 µM in the experiment with HOP-92 NSCLC. In addition, the TGI was over 100 µM with ACHN renal, over 37.4 µM with MOLT-4 leukemia, over 37.3 µM in the experiment on COLO 205 colon and over 100 µM in the experiment on OVCAR-5 ovarian.

`O=C(Nc1cccc(-n2cc(-c3ccncc3)c(-c3ccc(O)c(Cl)c3)n2)c1)c1ccc(Cl)c(Cl)c1`: the GI50 in the experiment with T-47D breast is 5.36 µM; in the experiment on HS 578T breast it was 2.82 µM; in the experiment with PC-3 prostate, 5.16 µM; in the experiment on MCF7 breast, 4.08 µM; in the experiment with HCT-116 colon it was 5.95 µM; in the experiment with HOP-92 NSCLC it was 2.33 µM. In addition, the GI50 in the experiment on ACHN renal was 4.62 µM; in the experiment on MOLT-4 leukemia, 7.19 µM; in the experiment with COLO 205 colon it was 62.2 µM; with OVCAR-5 ovarian it was 39.5 µM. The TGI in the experiment on T-47D breast is over 100 µM; in the experiment on HS 578T breast it was over 100 µM; with PC-3 prostate it was over 100 µM; with MCF7 breast, over 100 µM; with HCT-116 colon it was over 100 µM; with HOP-92 NSCLC, 28.4 µM. For the same compound, the TGI in the experiment with ACHN renal, in the experiment with MOLT-4 leukemia, in the experiment on COLO 205 colon and in the experiment on OVCAR-5 ovarian was over 100 µM each time.

The record behind these values is PubChem BioAssay (NCI).
